From patent US20030118571A1, “Oral administration of lactobacillus for the maintenance of health in women during pregnancy and at other life stages, to reduce the risk of urogenital diseases” (priority 1999, published 2003) come the findings set out here.

Read-outs that look alike come from different tables or passages of the source. No end group written: not given here.

One experiment concerns Kl. pneumoniae. In words: MIC of peptides against uropathogenic microorganisms. It is filed as cell-based. The note with it: K. pneumoniae; bactericidal if less than 0.1% of original bacteria remained viable.
The test system of another experiment is Staph. epidermidis. Described as above. It is filed as cell-based, Staphylococcus epidermidis 1938.
The subject of another experiment is Ps. aeruginosa. In words: MIC of peptides against uropathogenic microorganisms. It is filed as cell-based, Pseudomonas aeruginosa AK1. The note with it: P. aeruginosa; bactericidal if less than 0.1% of original bacteria remained viable.
For a further experiment, the system named is E. coli. Nature of the experiment: MIC of peptides against uropathogenic microorganisms. Type of experiment: cell-based, Escherichia coli HU734. The note with it: bactericidal if less than 0.1% of original bacteria remained viable.

Protocol for L. fermentum B-54: (§1) Mean values obtained from three independent experiments are shown.
(§2) Action of the peptide was considered bactericidal if less than 0.1% of original number of bacteria remained viable following the treatment. Resistant organisms were also plated from the 100 μmol 1^−1 well to confirm presence of any inhibition.
Protocol for L. fermentum RC-14: as §1, §2
Protocol for L. plantarum RC-20: as §1, §2
Protocol for L. rhamnosus 81: as §1, §2
Protocol for L. rhamnosus GR-1: as §1, §2

Take “FALL-39 (FALLGDFFRKSKEKIGKEFKRIVQRIKDFLRNLVPRTES; Antibacterial peptide FALL-39; UniProt P49913 132-170, looked up)”: the mode of action result in the experiment on L. fermentum B-54 (L. fermentum B-54) was “bacteriostatically”; in the experiment with Kl. pneumoniae it was “bacteriostatic”; in the experiment on Ps. aeruginosa, “bacteriostatic”; in the experiment on E. coli it was “bactericidal”. Also, the MIC against L. fermentum B-54 (L. fermentum B-54 as indicator organism) is 100 µM; with Staph. epidermidis it was above 100 μmol 1^−1 M. Also, the “susceptibility of strain to peptide” value with L. rhamnosus 81 (L. rhamnosus 81, highest concentration 100 μmol 1^−1) is given as “resistant”; with L. plantarum RC-20 (L. plantarum RC-20, highest concentration 100 μmol 1^−1), “resistant”; in the experiment with L. fermentum RC-14 (L. fermentum RC-14, highest concentration 100 μmol 1^−1), “resistant”; in the experiment with L. rhamnosus GR-1 (L. rhamnosus GR-1, highest concentration 100 μmol 1^−1), “resistant”.
For “SWLSKTAKKLENSAKKRISEGIAIAIQGGPR [Cecropin P1]”, the MIC in the experiment with L. fermentum B-54 was above 100 µM; in the experiment with L. rhamnosus 81 it was above 100 µM; in the experiment on Staph. epidermidis it was above 100 μmol 1^−1 M; in the experiment on L. plantarum RC-20 it was above 100 µM; against L. fermentum RC-14, above 100 µM; against L. rhamnosus GR-1, above 100 µM. Also, the mode of action result in the experiment on Kl. pneumoniae, in the experiment on Ps. aeruginosa and with E. coli was “bacteriocidally” in each case.
